Values of other authors, collected in patent US10918618B2, “Methods of reducing microbial contamination” (3M INNOVATIVE PROPERTIES COMPANY, priority 2005, dated 2021).

solubility limit [g/100 mL]	Compound
1.9	[H]/N=C(\N/C(=N/[H])NCCCCCCNC(=N)NC(=N)Nc1ccc(Cl)cc1)Nc1ccc(Cl)cc1 [diacetate, chlorhexidine]
20	N=C(NCCCCCCNC(=N)NC(=N)Nc1ccc(Cl)cc1)NC(=N)Nc1ccc(Cl)cc1.O=C(O)[C@H](O)[C@@H](O)[C@H](O)[C@H](O)CO.O=C(O)[C@H](O)[C@@H](O)[C@H](O)[C@H](O)CO [digluconate salt, chlorhexidine digluconate]
